Laboratory results as given in patent US20110130365A1, “Fluorinated Heteroaryls” (priority 2008, published 2011).
pEC50: −log10 of the molar value. Where a name gives a salt, the structure may show the parent alone.

Target: T1, Full-length glucokinase (beta cell isoform) (Homo sapiens, UniProt P35557)
T1 construct: Full-length glucokinase (beta cell isoform) was His-tagged at N-terminus; His tag (N); made in house
T1 sequence (P35557 1-465): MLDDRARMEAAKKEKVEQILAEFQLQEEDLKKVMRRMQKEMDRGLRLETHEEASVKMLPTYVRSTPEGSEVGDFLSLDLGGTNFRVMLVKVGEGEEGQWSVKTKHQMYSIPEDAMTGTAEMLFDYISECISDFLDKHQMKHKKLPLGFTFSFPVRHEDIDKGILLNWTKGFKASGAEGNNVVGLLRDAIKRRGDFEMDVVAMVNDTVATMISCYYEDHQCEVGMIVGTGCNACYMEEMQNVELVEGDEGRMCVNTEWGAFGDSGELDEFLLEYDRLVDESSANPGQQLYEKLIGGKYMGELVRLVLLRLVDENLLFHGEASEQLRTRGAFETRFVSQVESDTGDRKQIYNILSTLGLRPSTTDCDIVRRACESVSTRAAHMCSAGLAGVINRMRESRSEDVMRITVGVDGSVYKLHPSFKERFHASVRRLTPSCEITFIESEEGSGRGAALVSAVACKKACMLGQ
Assay: Glucokinase activation assay (PK/LDH-coupled, NADH depletion at 340 nm)
Assay type: biochemical
Settings: 5 mM glucose, 2.5 mM ATP, pH 7.1, room temperature, values given as a range where N>1; for Emax: fitted % max activation, read-out: Maximum Activation
Method: Full-length glucokinase (beta cell isoform) was His-tagged at N-terminus and purified by a Ni column followed by size exclusion chromatography. A 320 mL column was packed in house using Pharmacia Superdex75 preparation grade resin. Glucose was obtained from Calbiochem (San Diego, Calif.) and other reagents were purchased from Sigma (St. Louis, Mo.).
All assays were performed in a Corning 384-well plate using Spectramax PLUS spectrophotometer (Molecular Devices, Sunnyvale, Calif.) at room temperature. The final assay volume was 40 μL. The buffer conditions used in this assay were as follows: 50 mM HEPES, 5 mM glucose, 2.5 mM ATP, 3.5 mM MgCl2, 0.7 mM NADH, 2 mM dithiothreitol, 1 Unit/mL PK/LDH, 0.2 mM phosphoenolpyruvate, and 25 mM KCl. The buffer pH was 7.1. The test compound in DMSO solution was added to the buffer and mixed by a plate shaker for 7.5 minutes. The final concentration of DMSO introduced into the assay was 0.25%.
Glucokinase was added to the buffer mixture to initiate the reaction in the presence and absence of compound. The reaction was monitored by absorbance at 340 nm due to the depletion of NADH. The initial reaction velocity was measured by the slope of a linear time course of 0-300 seconds. The percentage of activation was calculated by the following equation:
% Activation=(Va/Vo−1)×100;
wherein each of Va and Vo is defined as the initial reaction velocity in the presence and absence of the tested compound, respectively.
To determine the EC50 (half maximal effective concentration) and % maximum activation, compounds were serially diluted in DMSO by 3-fold. The GK activities were measured as a function of compound concentrations. The data were fitted to the equation below to obtain the EC50 and % max activation values:
Va/Vo=1+(% max activation/100)/(1+EC50/compound concentration)

Compound	Emax	pEC50
Cc1ccc(NC(=O)[C@H](CC2CCCC2)n2cccc(C(F)(F)F)c2=O)nc1 [Example 2, (S)-3-cyclopentyl-N-(5-methylpyridin-2-yl)-2-(2-oxo-3-(trifluoromethyl)pyridin-1(2H)-yl)propanamide]	0%	< 4.00
Cc1cnc(NC(=O)[C@H](CC2CCCC2)n2ccc(C(F)(F)F)cc2=O)cn1 [Example 1, (S)-3-cyclopentyl-N-(5-methylpyrazin-2-yl)-2-(2-oxo-4-(trifluoromethyl)pyridin-1(2H)-yl)propanamide]	76 to 100%	4.98 to 5.30
CCn1ccc(NC(=O)[C@H](CC2CCCC2)n2ccc(C(F)(F)F)cc2=O)n1 [Example 15, (S)-3-cyclopentyl-N-(1-ethyl-1H-pyrazol-3-yl)-2-(2-oxo-4-(trifluoromethyl)pyridin-1(2H)-yl)propanamide]	92%	5.03
Cn1ccc(NC(=O)[C@H](CC2CCCC2)n2cc(C(F)(F)F)ccc2=O)n1 [Example 16, (S)-3-cyclopentyl-N-(1-methyl-1H-pyrazol-3-yl)-2-(2-oxo-5-(trifluoromethyl)pyridin-1(2H)-yl)propanamide]	125%	5.60
O=C(Nc1ncccn1)[C@H](CC1CCCC1)n1cc(C(F)(F)F)ccc1=O [Example 12, (S)-3-cyclopentyl-2-(2-oxo-5-(trifluoromethyl)pyridin-1(2H)-yl)-N-(pyrimidin-2-yl)propanamide]	109 to 110%	4.68 to 4.87
O=C(Nc1cnccn1)[C@H](CC1CCCC1)n1ccc(C(F)(F)F)cc1=O [Example 13, (S)-3-cyclopentyl-2-(2-oxo-4-(trifluoromethyl)pyridin-1(2H)-yl)-N-(pyrazin-2-yl)propanamide]	106%	4.85
Cc1ccc(NC(=O)[C@H](CC2CCCC2)n2ccc(C(F)(F)F)cc2=O)nc1 [Example 3, (S)-3-cyclopentyl-N-(5-methylpyridin-2-yl)-2-(2-oxo-4-(trifluoromethyl)pyridin-1(2H)-yl)propanamide]	55 to 79%	5.60 to 6.00
Cc1ccc(NC(=O)[C@H](CC2CCCC2)n2cc(C(F)(F)F)ccc2=O)nc1 [Example 6, (S)-3-cyclopentyl-N-(5-methylpyridin-2-yl)-2-(2-oxo-5-(trifluoromethyl)pyridin-1(2H)-yl)propanamide]	88 to 105%	6.10 to 6.70
Cn1ccc(NC(=O)[C@H](CC2CCCC2)n2ccc(C(F)(F)F)cc2=O)n1 [Example 4, (S)-3-cyclopentyl-N-(1-methyl-1H-pyrazol-3-yl)-2-(2-oxo-4-(trifluoromethyl)pyridin-1(2H)-yl)propanamide]	72 to 106%	4.65 to 5.34
CCOP(=O)(Cc1cnc(NC(=O)[C@H](CC2CCCC2)n2cc(C(F)(F)F)ccc2=O)cn1)OCC [Example 29, (S)-diethyl (5-(3-cyclopentyl-2-(2-oxo-5-(trifluoromethyl)pyridin-1(2H)-yl)propanamido)-pyrazin-2-yl)methylphosphonate]	141%	5.24
Cc1cnc(NC(=O)[C@H](CC2CCCC2)n2cccc(C(F)(F)F)c2=O)cn1 [Example 5, (S)-3-cyclopentyl-N-(5-methylpyrazin-2-yl)-2-(2-oxo-3-(trifluoromethyl)pyridin-1(2H)-yl)propanamide]	0%	< 4.00

Further lines, results first:

Emax	pEC50	Compound
87 to 90%	5.12 to 5.16	CC(C)(O)Cn1ccc(NC(=O)[C@H](CC2CCCC2)n2ccc(C(F)(F)F)cc2=O)n1 [Example 32, (S)-3-cyclopentyl-N-(1-(2-hydroxy-2-methylpropyl)-1H-pyrazol-3-yl)-2-(2-oxo-4-(trifluoromethyl)pyridin-1(2H)-yl)propanamide]
100 to 102%	5.57 to 5.74	O=C(O)c1ccc(NC(=O)[C@H](CC2CCCC2)n2ccc(C(F)(F)F)cc2=O)nc1 [Example 34, (S)-6-(3-cyclopentyl-2-(2-oxo-4-(trifluoromethyl)pyridin-1(2H)-yl)propanamido)nicotinic acid]
113%	6.52	O=C(Nc1ccccn1)[C@H](CC1CCCC1)n1cc(C(F)(F)F)ccc1=O [Example 21, (S)-3-cyclopentyl-2-(2-oxo-5-(trifluoromethyl)pyridin-1(2H)-yl)-N-(pyridin-2-yl)propanamide]
106%	5.09	Cc1ccc(NC(=O)[C@H](CC2CCCC2)n2cnc(C(F)F)cc2=O)nc1 [Example 36, (S)-3-cyclopentyl-2-(4-(difluoromethyl)-6-oxopyrimidin-1(6H)-yl)-N-(5-methylpyridin-2-yl)propanamide]
92 to 101%	5.46 to 5.82	O=C(O)c1ccc(NC(=O)[C@H](CC2CCCCC2)n2ccc(C(F)(F)F)cc2=O)nc1 [Example 37, (S)-6-(3-cyclohexyl-2-(2-oxo-4-(trifluoromethyl)pyridin-1(2H)-yl)propanamido)nicotinic acid]
–	< 4.00	Cn1ccc(NC(=O)[C@H](CC2CCOCC2)n2ccc(C(F)(F)F)cc2=O)n1 [Example 43, (S)—N-(1-methyl-1H-pyrazol-3-yl)-2-(2-oxo-4-(trifluoromethyl)pyridin-1(2H)-yl)-3-(tetrahydro-2H-pyran-4-yl)propanamide]
89%	6.30	O=C(Nc1ccc2ccccc2n1)[C@H](CC1CCCC1)n1cc(C(F)(F)F)ccc1=O [Example 19, (S)-3-cyclopentyl-2-(2-oxo-5-(trifluoromethyl)pyridin-1(2H)-yl)-N-(quinolin-2-yl)propanamide]
114%	5.92	COc1cnc(NC(=O)[C@H](CC2CCCC2)n2cc(C(F)(F)F)ccc2=O)cn1 [Example 20, (S)-3-cyclopentyl-N-(5-methoxypyrazin-2-yl)-2-(2-oxo-5-(trifluoromethyl)pyridin-1(2H)-yl)propanamide]
–	< 4.00	Cc1cnc(NC(=O)[C@H](CC2CCOCC2)n2ccc(C(F)(F)F)cc2=O)cn1 [Example 42, (S)—N-(5-methylpyrazin-2-yl)-2-(2-oxo-4-(trifluoromethyl)pyridin-1(2H)-yl)-3-(tetrahydro-2H-pyran-4-yl)propanamide]
57%	6.40	O=C(Nc1ccc(C(F)(F)F)cn1)[C@H](CC1CCCC1)n1cc(C(F)(F)F)ccc1=O [Example 17, (S)-3-cyclopentyl-2-(2-oxo-5-(trifluoromethyl)pyridin-1(2H)-yl)-N-(5-(trifluoromethyl)pyridin-2-yl)propanamide]
–	< 4.00	Cc1cnc(NC(=O)[C@H](CC2CCOCC2)n2cc(C(F)(F)F)ccc2=O)cn1 [Example 39, (S)—N-(5-methylpyrazin-2-yl)-2-(2-oxo-5-(trifluoromethyl)pyridin-1(2H)-yl)-3-(tetrahydro-2H-pyran-4-yl)propanamide]
172 to 194%	5.70 to 5.96	CC(C)(O)Cn1ccc(NC(=O)[C@H](CC2CCCC2)n2cc(C(F)(F)F)ccc2=O)n1 [Example 31, (S)-3-cyclopentyl-N-(1-(2-hydroxy-2-methylpropyl)-1H-pyrazol-3-yl)-2-(2-oxo-5-(trifluoromethyl)pyridin-1(2H)-yl)propanamide]
144%	4.35	Cc1cnc(NC(=O)[C@H](CC2CCCC2)n2cnc(C(F)F)cc2=O)cn1 [Example 35, (S)-3-cyclopentyl-2-(4-(difluoromethyl)-6-oxopyrimidin-1(6H)-yl)-N-(5-methylpyrazin-2-yl)propanamide]
121%	4.27	Cn1ccc(NC(=O)[C@H](CC2CCOCC2)n2cc(C(F)(F)F)ccc2=O)n1 [Example 40, (S)—N-(1-methyl-1H-pyrazol-3-yl)-2-(2-oxo-5-(trifluoromethyl)pyridin-1(2H)-yl)-3-(tetrahydro-2H-pyran-4-yl)propanamide]
147%	6.30	O=C(O)c1ccc(NC(=O)[C@H](CC2CCCC2)n2cc(C(F)(F)F)ccc2=O)nc1 [Example 28, (S)-6-(3-cyclopentyl-2-(2-oxo-5-(trifluoromethyl)pyridin-1(2H)-yl)propanamido)nicotinic acid mono acetic acid salt]
